In one test the target is T1, α9α10 nAChR (Rattus norvegicus, UniProt P43144+Q9JLB5).
T1 construct: expressed in transfected cells; host or cells: oocytes
Briefly: cell-based.

The target of another test is T2, human α9α10 nAChR (Homo sapiens, UniProt Q9GZZ6+Q9UGM1).
T2 construct: expressed in transfected cells; host or cells: oocytes
Briefly: cell-based.

In general, pIC50 refers to −log10 of the IC50, conventionally taken in molar units. Read a low pIC50 as a large IC50.

pIC50: −log10 of the molar value. Positions of bridges follow the written chain, without caps; N, C: chain ends. Residues, ends and D or L forms follow the SMILES beside them.

T1 sequence (P43144 26-479 limits assumed): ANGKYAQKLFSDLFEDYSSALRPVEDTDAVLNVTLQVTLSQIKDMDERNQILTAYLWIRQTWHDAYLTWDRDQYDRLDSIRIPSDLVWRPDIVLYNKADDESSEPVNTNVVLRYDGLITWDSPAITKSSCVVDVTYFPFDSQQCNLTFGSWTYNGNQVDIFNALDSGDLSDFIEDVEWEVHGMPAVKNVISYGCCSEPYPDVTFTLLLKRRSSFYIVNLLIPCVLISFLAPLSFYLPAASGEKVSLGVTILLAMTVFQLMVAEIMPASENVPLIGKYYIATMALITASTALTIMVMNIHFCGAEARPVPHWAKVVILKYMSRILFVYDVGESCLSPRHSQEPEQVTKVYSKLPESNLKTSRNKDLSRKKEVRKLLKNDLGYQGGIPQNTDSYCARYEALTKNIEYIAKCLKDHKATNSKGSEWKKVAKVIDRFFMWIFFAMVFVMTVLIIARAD
T1 sequence (Q9JLB5 25-447 limits assumed): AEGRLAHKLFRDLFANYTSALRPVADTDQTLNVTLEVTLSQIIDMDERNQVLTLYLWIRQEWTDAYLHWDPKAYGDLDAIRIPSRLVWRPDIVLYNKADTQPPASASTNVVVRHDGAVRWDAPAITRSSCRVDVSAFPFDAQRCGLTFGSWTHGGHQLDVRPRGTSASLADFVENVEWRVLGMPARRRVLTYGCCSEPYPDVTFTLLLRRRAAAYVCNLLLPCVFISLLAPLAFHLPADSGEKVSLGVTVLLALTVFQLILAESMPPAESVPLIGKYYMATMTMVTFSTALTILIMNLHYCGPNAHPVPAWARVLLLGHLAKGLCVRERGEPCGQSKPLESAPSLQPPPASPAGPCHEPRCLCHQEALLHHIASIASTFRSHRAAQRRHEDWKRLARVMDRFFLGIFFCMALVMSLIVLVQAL
T2 sequence (Q9UGM1 26-479 limits assumed): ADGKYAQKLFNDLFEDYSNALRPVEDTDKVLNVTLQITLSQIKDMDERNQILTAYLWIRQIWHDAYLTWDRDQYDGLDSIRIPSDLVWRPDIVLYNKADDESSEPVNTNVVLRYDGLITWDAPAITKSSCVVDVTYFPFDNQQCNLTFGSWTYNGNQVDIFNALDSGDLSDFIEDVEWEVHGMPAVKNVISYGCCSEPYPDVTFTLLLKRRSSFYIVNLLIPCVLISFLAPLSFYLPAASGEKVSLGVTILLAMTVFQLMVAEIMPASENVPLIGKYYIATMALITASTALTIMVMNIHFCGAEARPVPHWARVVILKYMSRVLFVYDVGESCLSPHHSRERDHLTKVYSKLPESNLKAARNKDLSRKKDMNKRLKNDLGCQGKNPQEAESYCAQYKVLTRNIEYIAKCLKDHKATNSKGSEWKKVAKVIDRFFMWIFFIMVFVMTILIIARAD
T2 sequence (Q9GZZ6 25-450): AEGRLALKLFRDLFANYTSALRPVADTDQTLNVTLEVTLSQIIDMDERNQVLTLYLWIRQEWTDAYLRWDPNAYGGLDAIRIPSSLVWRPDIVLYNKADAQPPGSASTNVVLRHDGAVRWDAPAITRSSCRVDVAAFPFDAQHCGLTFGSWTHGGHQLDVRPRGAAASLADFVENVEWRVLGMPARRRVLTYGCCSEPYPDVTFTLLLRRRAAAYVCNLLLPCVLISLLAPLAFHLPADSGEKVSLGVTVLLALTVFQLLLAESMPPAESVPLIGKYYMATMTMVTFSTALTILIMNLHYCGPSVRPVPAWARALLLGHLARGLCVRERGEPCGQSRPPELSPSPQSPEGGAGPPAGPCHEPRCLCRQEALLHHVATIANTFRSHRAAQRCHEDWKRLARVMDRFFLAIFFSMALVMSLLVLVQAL

For the molecule `N=C(N)NCCC[C@H](NC(=O)[C@@H]1CSSC[C@@H]2NC(=O)[C@@H](NC(=O)CN)CSSC[C@H](NC(=O)[C@H](CCCNC(=N)N)NC(=O)[C@@H]3CCCN3C(=O)[C@H](CC(=O)O)NC(=O)[C@H](CO)NC2=O)C(=O)N[C@@H](CCCNC(=N)N)C(=O)N[C@@H](Cc2ccccc2)C(=O)N[C@@H](CCCNC(=N)N)C(=O)N1)C(=O)O` [SEQ ID NO:17] (H-GCCSDPRCRFRCR-OH; disulfide 2-8, 3-12), the results for the negative logarithm of the IC50 (pIC50) against α9α10 nAChR and against human α9α10 nAChR were 8.10 and less than 6.00, respectively.

The molecule `N=C(N)NCCC[C@H](NC(=O)[C@@H]1CSSC[C@@H]2NC(=O)[C@@H](NC(=O)CN)CSSC[C@H](NC(=O)[C@H](CCCNC(=N)N)NC(=O)[C@@H]3CCCN3C(=O)[C@H](CC(=O)O)NC(=O)[C@H](CO)NC2=O)C(=O)N[C@@H](CCCCN)C(=O)N[C@@H](Cc2ccc(O)cc2)C(=O)N[C@@H](CCCNC(=N)N)C(=O)N1)C(=O)O` [SEQ ID NO:14] showed a pIC50 against α9α10 nAChR of less than 6.00.

`CC(C)[C@@H]1NC(=O)[C@H](CC(=O)O)NC(=O)[C@H](CO)NC(=O)[C@@H]2CSSC[C@@H](C(=O)N[C@@H](CCCNC(=N)N)C(=O)O)NC(=O)[C@H](CCCNC(=N)N)NC(=O)[C@H](Cc3ccc(O)cc3)NC(=O)[C@H](CCCNC(=N)N)NC(=O)[C@H](CSSC[C@H](NC(=O)CN)C(=O)N2)NC(=O)[C@H](CCCNC(=N)N)NC1=O` [SEQ ID NO:23] (H-GCCSDVRCRYRCR-OH; disulfide 2-8, 3-12): the pIC50 on α9α10 nAChR is 5.39.

Consider `N=C(N)NCCC[C@@H]1NC(=O)[C@H](Cc2ccc(O)cc2)NC(=O)[C@H](CCCNC(=N)N)NC(=O)[C@@H]2CSSC[C@H](NC(=O)CN)C(=O)N[C@@H](CSSC[C@@H](C(N)=O)NC1=O)C(=O)N[C@@H](CO)C(=O)N[C@@H](CC(=O)O)C(=O)N1CCC[C@H]1C(=O)N[C@@H](CCCNC(=N)N)C(=O)N2` [SEQ ID NO:21] (H-GCCSDPRCRYRC-NH2; disulfide 2-8, 3-12), for which, at α9α10 nAChR, the pIC50 was 8.11.

Regarding `C[C@@H]1NC(=O)[C@@H]2CSSC[C@@H](C(=O)N[C@@H](CCCNC(=N)N)C(=O)O)NC(=O)[C@H](CCCNC(=N)N)NC(=O)[C@H](Cc3ccc(O)cc3)NC(=O)[C@H](CCCNC(=N)N)NC(=O)[C@H](CSSC[C@H](NC(=O)CN)C(=O)N2)NC(=O)[C@H](CCCNC(=N)N)NC(=O)[C@@H]2CCCN2C(=O)[C@H](CC(=O)O)NC1=O` [SEQ ID NO:20] (H-GCCADPRCRYRCR-OH; disulfide 2-8, 3-12), the pIC50 is 7.84 on α9α10 nAChR and less than 6.00 against human α9α10 nAChR.

`C[C@@H]1NC(=O)[C@@H]2CCCN2C(=O)[C@H](Cc2c[nH]cn2)NC(=O)[C@H](CO)NC(=O)[C@@H]2CSSC[C@@H](C(=O)N[C@@H](CCCNC(=N)N)C(=O)O)NC(=O)[C@H](CCCNC(=N)N)NC(=O)[C@H](Cc3ccc(O)cc3)NC(=O)[C@H](CCCNC(=N)N)NC(=O)[C@H](CSSC[C@H](NC(=O)CN)C(=O)N2)NC1=O` [SEQ ID NO:25] (H-GCCSHPACRYRCR-OH; disulfide 2-8, 3-12) had a pIC50 against α9α10 nAChR of less than 5.00.

In the case of `N=C(N)NCCC[C@H](NC(=O)[C@@H]1CSSC[C@@H]2NC(=O)[C@@H](NC(=O)CN)CSSC[C@H](NC(=O)[C@H](CCCNC(=N)N)NC(=O)[C@@H]3CCCN3C(=O)[C@H](CCC(=O)O)NC(=O)[C@H](CO)NC2=O)C(=O)N[C@@H](CCCNC(=N)N)C(=O)N[C@@H](Cc2ccc(O)cc2)C(=O)N[C@@H](CCCNC(=N)N)C(=O)N1)C(=O)O` [SEQ ID NO:22] (H-GCCSEPRCRYRCR-OH; disulfide 2-8, 3-12), the pIC50 on α9α10 nAChR was 5.18.

In the case of `N=C(N)NCCC[C@H](NC(=O)[C@@H]1CSSC[C@@H]2NC(=O)[C@@H](NC(=O)CN)CSSC[C@H](NC(=O)[C@H](CCCNC(=N)N)NC(=O)[C@@H]3CCCN3C(=O)[C@H](CC(=O)O)NC(=O)[C@H](CO)NC2=O)C(=O)N[C@@H](CCCNC(=N)N)C(=O)N[C@@H](Cc2c[nH]c3ccccc23)C(=O)N[C@@H](CCCNC(=N)N)C(=O)N1)C(=O)O` [SEQ ID NO:16] (H-GCCSDPRCRWRCR-OH; disulfide 2-8, 3-12), the pIC50 is 7.96 on α9α10 nAChR and 6.57 against human α9α10 nAChR.

On to `N=C(N)NCCC[C@H](NC(=O)[C@@H]1CSSC[C@@H]2NC(=O)[C@@H](NC(=O)CN)CSSC[C@H](NC(=O)[C@H](CCCNC(=N)N)NC(=O)[C@@H]3CCCN3C(=O)[C@H](CC(=O)O)NC(=O)[C@H](CO)NC2=O)C(=O)N[C@@H](CCCNC(N)=O)C(=O)N[C@@H](Cc2ccc(O)cc2)C(=O)N[C@@H](CCCNC(=N)N)C(=O)N1)C(=O)O` [SEQ ID NO:9], for which the pIC50 against α9α10 nAChR was 8.62; on human α9α10 nAChR, 6.38.

`C[C@@H]1NC(=O)[C@@H]2CSSC[C@H](NC(=O)CN)C(=O)N[C@@H](CSSC[C@@H](C(=O)N[C@@H](CCCNC(=N)N)C(=O)O)NC(=O)[C@H](CCCNC(=N)N)NC(=O)[C@H](Cc3ccc(O)cc3)NC1=O)C(=O)N[C@@H](CO)C(=O)N[C@@H](CC(=O)O)C(=O)N1CCC[C@H]1C(=O)N[C@@H](CCCNC(=N)N)C(=O)N2` [SEQ ID NO:24] (H-GCCSDPRCAYRCR-OH; disulfide 2-8, 3-12): at α9α10 nAChR, the pIC50 was 4.89.

Take `N=C(N)NCCC[C@H](NC(=O)[C@@H]1CSSC[C@@H]2NC(=O)[C@@H](NC(=O)CN)CSSC[C@H](NC(=O)[C@H](CCCNC(=N)N)NC(=O)[C@@H]3CCCN3C(=O)[C@H](CC(=O)O)NC(=O)[C@H](CO)NC2=O)C(=O)N[C@@H](CCCNC(=N)N)C(=O)N[C@@H](Cc2ccc(O)cc2)C(=O)N[C@@H](Cc2c[nH]cn2)C(=O)N1)C(=O)O` [SEQ ID NO:36] (H-GCCSDPRCRYHCR-OH; disulfide 2-8, 3-12): the pIC50 on human α9α10 nAChR is less than 6.00.

As for `N=C(N)NCCC[C@H](NC(=O)[C@@H]1CSSC[C@@H]2NC(=O)[C@@H](NC(=O)CN)CSSC[C@H](NC(=O)[C@H](CCCNC(=N)N)NC(=O)[C@@H]3CCCN3C(=O)[C@H](CC(=O)O)NC(=O)[C@H](Cc3ccc(O)cc3)NC2=O)C(=O)N[C@@H](CCCNC(=N)N)C(=O)N[C@@H](Cc2ccc(O)cc2)C(=O)N[C@@H](CCCNC(=N)N)C(=O)N1)C(=O)O` [SEQ ID NO:34] (H-GCCYDPRCRYRCR-OH; disulfide 2-8, 3-12), at human α9α10 nAChR, the negative-log IC50 (pIC50) was less than 6.00.

For `C[C@@H](O)[C@@H]1NC(=O)[C@@H]2CSSC[C@@H](C(=O)N[C@@H](CCCNC(=N)N)C(=O)O)NC(=O)[C@H](CCCNC(=N)N)NC(=O)[C@H](Cc3ccc(O)cc3)NC(=O)[C@H](CCCNC(=N)N)NC(=O)[C@H](CSSC[C@H](NC(=O)CN)C(=O)N2)NC(=O)[C@H](CCCNC(=N)N)NC(=O)[C@@H]2CCCN2C(=O)[C@H](CC(=O)O)NC1=O` [SEQ ID NO:3], the pIC50 at human α9α10 nAChR was 6.55.

At human α9α10 nAChR, `N=C(N)NCCC[C@H](NC(=O)[C@@H]1CSSC[C@@H]2NC(=O)[C@@H](NC(=O)CN)CSSC[C@H](NC(=O)[C@H](CCCNC(=N)N)NC(=O)[C@@H]3CCCN3C(=O)[C@H](CC(=O)O)NC(=O)[C@H](CO)NC2=O)C(=O)N[C@@H](CCCNC(=N)N)C(=O)N[C@@H](Cc2ccc(O)cc2)C(=O)N[C@@H](CCC(N)=O)C(=O)N1)C(=O)O` [SEQ ID NO:32] (H-GCCSDPRCRYQCR-OH; disulfide 2-8, 3-12) showed a pIC50 of 6.69.

As for `N=C(N)NCCCC[C@@H]1NC(=O)[C@@H]2CSSC[C@H](NC(=O)CN)C(=O)N[C@@H](CSSC[C@@H](C(=O)N[C@@H](CCCNC(=N)N)C(=O)O)NC(=O)[C@H](CCCNC(=N)N)NC(=O)[C@H](Cc3ccc(O)cc3)NC1=O)C(=O)N[C@@H](CO)C(=O)N[C@@H](CC(=O)O)C(=O)N1CCC[C@H]1C(=O)N[C@@H](CCCNC(=N)N)C(=O)N2` [SEQ ID NO:11], the pIC50 on α9α10 nAChR and at human α9α10 nAChR was less than 6.00 in each case.
